What was measured:
[1] = test system: Beagle dogs; experiment: Polysomnographic study in the dog (EEG, 4 hours after oral gelule); format: in vivo; details: for Latency: Paradoxal (REM) sleep / Latency: Slow wave sleep (SWS) / Latency: Somnolence / Time passed at stage: Alertness / Time passed at stage: REM / Time passed at stage: SWS / Time passed at stage: Somnolence: oral gelule; for Time passed at stage: Alertness / Time passed at stage: REM / Time passed at stage: SWS / Time passed at stage: Somnolence: four hours of monitoring
Method: (§1) The dihydroimidazo[5,1-a]-β-carboline derivatives of the invention, in particular those in the form of the methyl sulfonate, (soluble), were tested in chicks, and certain compounds that were active in the chick were administered in single doses to six Beagle dogs of both sexes for a polysomnographic study of at least 4 hours duration.
Polysomnographic tests were carried out for each of the three products from the series, on 6 dogs of both sexes, adults from the certified breeding kennels at HARLAN, 03 Gannat, using stainless steel electrodes surgically implanted for the duration of the test in contact with the frontal bones through the sinus, facing the motor regions of the encephalus. The Nishino et al method adapted by Tafani, Valin et al has been described elsewhere. It comprised recording two traces for eye movements, one trace for muscular movements (concentric electrode in the nape muscles) and two electroencephalographic (EEG) traces. The digital EEG trace was recorded using a Nicollet Schwarzer polygraph or the like (DELTAMED Coherence 2 and 3, MEI Galileo NT) for 4 hours after administering a 00 gelule containing 0, 16 or 48 mg of the test product (i.e. a mean of 0,1 and 3 mg/kg of live weight).
Each dog was monitored for 4 hours twice a day over two days, morning and afternoon, after one week's acclimatization to the monitoring cage, a 1 m^2, 80 cm high stainless steel cage of the SHOR-LINE type. For each dog, monitoring always commenced at the same time. A meal was distributed 30 minutes before starting monitoring.
The polysomnographic traces could differentiate between at least 4 stages for each consecutive 30 second period: awake, somnolence, slow sleep and paradoxal sleep. The latency of the appearance of each of the first nonalert episodes and the duration of each of the stages per 2 hour period were recorded for each dog. Comparing the means allowed the effect of the test products on the sleep microstructure to be studied.

[2] = test system: JA 657 chicks; experiment: Chick sleep/sedation test (IM injection, 90 minute observation); format: in vivo; details: for Sed (sedation time as % of the period) / TA (time to torpor between injection and first stage of sleep) / TS (duration of the first sleep) / Tsed (total sedation time over the period): 90 min observation; for TS (mins) Placebo diff'ce: extension of first sleep compared with test controls
Method: as §1
JA 657 chicks from Couvoir Gauguet, 44 Le Pin, were accustomed for at least 6 days to an alternating program of light and darkness with 12 hours of daylight and 12 hours of darkness at a regulated temperature of 25±2° C. They were fed ad libitum and were placed under test compounds in a vivarium in groups of 3 individuals with a mean weight of 100±10 g on the day of the test. At that age in this species, there is no effective meningeal (hemato-encephalic) barrier. The test products were injected in 3 doses (1, 3 and 10 mg/kg) intramuscularly (IM) in solution or in an aqueous suspension (1 drop of Tween 80 per ml), each to two batches of 3 chicks which were observed over 90 minutes. For each test series (18 vivaria), there was at least one batch of negative control chicks receiving the same volume (0.2 ml IM) of water for injectable preparations.
During the 90 minute observation period, the chicks were strongly stimulated every 15 minutes by presenting a full feeding trough, and each 5 minute period was given a grade from among the following 5 states, corresponding to the state of alertness over that period:
Mobile, sitting alert, drowsy, asleep, sleep-like state. The parameters studied were the time to torpor (TA) passed between injection and the first stage of sleep, the duration of the first sleep (TS) and the total sedation time over the period (Tsed), expressed in minutes and as a % of the period (Sed).
To compare the results of tests carried out at different dates, the extension of the duration of the first sleep TS compared with the test controls was recorded.

Row | Structure (SMILES) | Sed (sedation time as % of the period) ([2]; Dose: 1 mg/kg) [%] | TA (time to torpor between injection and first stage of sleep) ([2]; Dose: 1 mg/kg) [min] | TS (duration of the first sleep) ([2]; Dose: 1 mg/kg) [min] | Tsed (total sedation time over the period) ([2]; Dose: 1 mg/kg) [min] | TS (mins) Placebo diff'ce ([2]; Dose: 1 mg/kg) [min] | Sed (sedation time as % of the period) ([2]; Dose: 3 mg/kg) [%] | TA (time to torpor between injection and first stage of sleep) ([2]; Dose: 3 mg/kg) [min] | TS (duration of the first sleep) ([2]; Dose: 3 mg/kg) [min] | Tsed (total sedation time over the period) ([2]; Dose: 3 mg/kg) [min] | TS (mins) Placebo diff'ce ([2]; Dose: 3 mg/kg) [min] | Sed (sedation time as % of the period) ([2]; Dose: 10 mg/kg) [%] | TA (time to torpor between injection and first stage of sleep) ([2]; Dose: 10 mg/kg) [min] | TS (duration of the first sleep) ([2]; Dose: 10 mg/kg) [min] | Tsed (total sedation time over the period) ([2]; Dose: 10 mg/kg) [min] | TS (mins) Placebo diff'ce ([2]; Dose: 10 mg/kg) [min] | also measured
1 | CS(=O)(=O)O.Cc1ncc2n1CCc1c-2n(C)c2ccccc12 [Example 1, 3,11-dimethyl-5,6-dihydroimidazo[5,1-a]-β-carboline methane sulfonate] | 71.7 | 7 | 56.5 | 64.5 | 56 | 87.2 | 4.5 | 78.5 | 78.5 | 78 | 96.7 | 1 | 86 | 87 | 85.7 | latency of the first somnolence (in words) ([1]; 1 and 3 mg/kg, versus placebo): clearer in the 3 mg/kg dose; Latency: Paradoxal (REM) sleep ([1]; 1 mg): 101 ± 80.3 min; Latency: Slow wave sleep (SWS) ([1]; 1 mg): 52 ± 24.8 min; Latency: Somnolence ([1]; 1 mg): 47 ± 19.1 min; Time passed at stage: Alertness ([1]; 1 mg): 139 ± 69.1 min; Time passed at stage: REM ([1]; 1 mg): 23 ± 19.1 min; Time passed at stage: SWS ([1]; 1 mg): 51 ± 42.3 min; Time passed at stage: Somnolence ([1]; 1 mg): 27 ± 10.4 min; Latency: Paradoxal (REM) sleep ([1]; 3 mg): 50 ± 22.2 min; Latency: Slow wave sleep (SWS) ([1]; 3 mg): 27 ± 8.0 min; Latency: Somnolence ([1]; 3 mg): 21 ± 7.1 min; Time passed at stage: Alertness ([1]; 3 mg): 106 ± 34.7 min; Time passed at stage: REM ([1]; 3 mg): 29 ± 13.7 min; Time passed at stage: SWS ([1]; 3 mg): 65 ± 30.2 min; Time passed at stage: Somnolence ([1]; 3 mg): 40 ± 10.9 min
2 | CCCc1ncc2n1CCc1c-2[nH]c2ccc(OC)cc12 [Example 7, 8-methoxy-3-propyl-5,6-dihydroimidazo[5,1-a]-β-carboline] | 41.4 | 16.5 | 16 | 46 | 16 | 41 | 16.5 | 27 | 45.5 | 27 | 48.2 | 12.5 | 38.5 | 53.5 | 38.5 | 
3 | CS(=O)(=O)O.Cc1ncc2n1CCc1c-2n(C)c2ccc(Cl)cc12 [Example 16, 8-chloro-3,11-dimethyl-5,6-dihydroimidazo-[5,1-a]-β-carboline methane sulfonate] | 41 | 11.5 | 15 | 37 | 14.7 | 33.9 | 13.5 | 20.5 | 30.5 | 20 | 58.3 | 7.5 | 31 | 52.5 | 52 | 
4 | COc1ccc2[nH]c3c(c2c1)CCn1c-3cnc1-c1ccccc1 [Example 14] | 63.5 | 7 | 35.5 | 62.865 | 32 | 68 | 15 | 34 | 61.2 | 31.5 | 70 | 7 | 28 | 63 | 25.5 | 
5 | CS(=O)(=O)O.Cc1ncc2n1CCc1c-2[nH]c2ccccc12 [Example 12, 3-methyl-5,6-dihydroimidazo[5,1-a]-β-carboline methane sulfonate] | 51.7 | 10 | 39.5 | 46.5 | 39 | 63.9 | 3.5 | 42 | 57.5 | 41.7 | 98.9 | 1 | 89 | 89 | 88.7 | 
6 | COc1ccc2c(c1)c1c(n2C)-c2cnc(C)n2CC1.CS(=O)(=O)O [Example 9, 8-methoxy-3,11-dimethyl-5,6-dihydroimidazo-[5,1-a]-β-carboline methane sulfonate] | 27.2 | 22 | 3 | 24.5 | 2.8 | 29.4 | 17.5 | 13.5 | 26.5 | 13 | 42.8 | 16.5 | 15.5 | 38.5 | 15 | 
7 | COc1ccc2[nH]c3c(c2c1)CCn1c-3cnc1C(C)C [Example 6, 8-methoxy-3-isopropyl-5,6-dihydroimidazo-[5,1-a]-β-carboline] | 73.3 | 11 | 56.5 | 65.97 | 52.5 | 80.6 | 12.5 | 72.5 | 72.5 | 68.5 | 82.2 | 12.5 | 72.5 | 74.0 | 68.5 | 
8 | CS(=O)(=O)O.Cc1ncc2n1CCc1c-2n(C)c2ccc(O)cc12 [Example 10, 8-hydroxy-3,11-dimethyl-5,6-dihydroimidazo-[5,1-a]-β-carboline methane sulfonate] | 42.2 | 15 | 5 | 38 | 4.7 | 12.2 | 30 | 1 | 11 | 0.7 | 30 | 11.5 | 12.5 | 27 | 12 | 

— patent US7291627B2, “Dihydroimidazo[5.1-a]-beta-carboline derivatives, method for their preparation, and their application as a drug” (MACEF, priority 2001, dated 2007)
